Results from patent publication US9750705B2, “Agents useful for treating obesity, diabetes and related disorders” (The Regents of the University of California, priority 2012, dated 2017).
Counter-ions that a name gives are not always drawn.

Tests used:
[1] = tested on: phospho-Erk in FL83B cells; test: Western blot of phospho-Erk; type: cell-based, mouse; details: drug 1 hour, then insulin
Procedure: As explained above and in Example 4, Western blots of phospho-Akt and phospho-Erk are a more accurate and precise and quantitative measure of Akt phosphorylation than ICWB measurements. Insulin-dependent phospho-Akt is a direct measurement of insulin sensitivity, and we expect that Shc inhibitors will stimulate phospho-Akt more than phospho-Erk. All of the drugs listed in FIG. 5A stimulated insulin-dependent phospho-Akt at some concentration. Method. Mouse liver cells FL83B were plated at density of 400.000 cells per well of 6 well plate and cultivated for 48 hours, media was changed to DMEM, 25 mM glucose serum free and 16 hours later the cells were treated with drug at the indicated concentration for one hour. Control wells were treated with the vehicle (DMSO), in certain control wells the metabolic (Akt) insulin signaling was blocked with wortmannin. The cells were induced with indicated concentration of insulin for 10 minutes, total protein was extracted and the Western Blots were performed with indicated antibody as described above. Mouse liver cells FL83B were plated at density of 400.000 cells per well of 6 well plate and cultivated for 48 hours, media was changed to DMEM, 25 mM glucose serum free and 16 hours later the cells were treated with drug at the indicated concentration for one hour. […]

phospho-Shc = test: Western blot of phospho-Shc (Shc activation); type: cell-based; details: dose response
Procedure: Assays to identify compounds useful for preventing, reducing, delaying or inhibiting symptoms of impaired insulin sensitivity, glucose intolerance or obesity can be performed in vitro. Candidate agents can be contacted with a population of test cells in the presence of insulin (e.g., 1 nM, 5 nM, 10 nM, 100 nM or more). An agent that prevents, reduces, delays or inhibits one or more symptoms of impaired insulin sensitivity, glucose intolerance or obesity increases the ratio of levels of phospho-Akt-1 over phospho-Erk relative to a control ratio. The increase in ratio of levels of phospho-Akt-1 over phospho-Erk can be determined in comparison to a control population of cells that have not been contacted with insulin or have been contacted with a low concentration of insulin (e.g., less than 0.1 nM) or a population of cells contacted with insulin but not with the compound under test. Ratio of levels of phospho-Akt-1 over phospho-Erk can be determined using a Western blot among other methods. Inhibition of Shc activity can be quantitatively measured by assaying the reduction of stimulatory Shc phosphorylation, using a phospho-Shc specific antibody. Inhibition of Shc expression can be measured using a Western blot. […]

[2] = Basal blood glucose in mice after daily drug administration; type: in vivo; details: 2.5 mg/kg I.P. for 4 days
Procedure: Groups of age/sex matched mice of Control and ShcKO genotypes were food deprived for four hours and challenged with I.P. injection of insulin, and glucose concentration was determined in blood exactly at indicated time-points. Decrease and recovery of blood glucose was calculated as a % of basal level (the time-point before insulin injection). Basal levels of glucose were measured in triplicate for each mouse. For the GTT, the same groups of mice were fasted during fourteen hours and challenged with glucose injection I.P., analogously the blood glucose concentrations were measured.
Groups of mice, ten for the experimental drug treatment and 14 for the placebo treatment were subject for I.P. administration of a drug or placebo solutions daily during four days. Acarbose, a known drug which decreases blood glucose concentration was used as a control. The insulin tolerance test, ITT was performed on the mice as described previously, in Example 2.

[3] = tested on: insulin-dependent activation of Akt and ERK in FL83B cells; test: High-throughput in-cell western blot (ICWB) screen for insulin sensitizers: insulin-dependent phospho-Akt versus phospho-Erk; type: cell-based, mouse; details: for rank in the insulin-sensitizer screen: screen of 1689 molecules
Procedure: Drugs were screened by in-cell western blot (ICWB) for their ability to stimulate phospho-Akt activation in the presence of trace or 10 nM insulin (FIG. 4A). Cells in wells were treated with drugs, and the activity (phosphorylation) of Akt was determined by a phospho-Akt specific antibody. In FIG. 4A, low insulin was given and drugs a, b, c, stimulated Akt activation. In FIG. 4B, 10 nM insulin was given and a, b, and c stimulated signaling over background, and d and e inhibited. […] Drugs were primarily screened for their ability to promote insulin-dependent stimulation of (phospho) Akt, then secondarily screened for lack of activity to stimulate (phospho) Erk, or a high Akt/Erk ratio. Such drugs are expected to cause insulin sensitivity, resistance to obesity, and longevity. Some drugs having these desired characteristics are Shc inhibitors.
FL83B cells were seeded on 384 well plates, 10,000 cells per well in F-12 media supplemented with 10% FBS and 25 mM glucose; 48 hours later the media was replaced with F-12, 25 mM glucose without FBS for sixteen hours; cells were supplemented with assigned drug at desired concentration for 1 hour in duplicate and then, the cells were stimulated with desired concentration of insulin for ten minutes for Akt activation and fifteen minutes for ERK activation measurements. After that time the media was removed and replaced with fixing solution of 5% Formaldehyde in PBS, pH=7.4, 30 minutes later, the fixing solution was replaced with the permeabilization buffer, 0.1% triton X100 in PBS for 40 minutes. […] After the incubation with the secondary antibodies for one hour at room temperature, the wells were washed again two times with the 0.1% tween-20 in PBS and scanned on the Li-Cor Odyssey infrared scanner; images were analyzed with the Li-Cor Odyssey software. […] Phospho-Akt, Phospho-ERK signals than were normalized by tubulin signals in each well and the densitometric results were analyzed to identify drugs which improved metabolic insulin sensitivity without inducing the mitogenic ERK activation. […]

[4] = tested on: phospho-Akt in FL83B cells; test: Western blot of insulin-dependent phospho-Akt; type: cell-based, mouse; details: for insulin-dependent phospho-Akt (P-Akt) signaling/activation: drug 1 hour, insulin 10 minutes
Procedure: As explained above and in Example 4, Western blots of phospho-Akt and phospho-Erk are a more accurate and precise and quantitative measure of Akt phosphorylation than ICWB measurements. Insulin-dependent phospho-Akt is a direct measurement of insulin sensitivity, and we expect that Shc inhibitors will stimulate phospho-Akt more than phospho-Erk. All of the drugs listed in FIG. 5A stimulated insulin-dependent phospho-Akt at some concentration. Method. Mouse liver cells FL83B were plated at density of 400.000 cells per well of 6 well plate and cultivated for 48 hours, media was changed to DMEM, 25 mM glucose serum free and 16 hours later the cells were treated with drug at the indicated concentration for one hour. Control wells were treated with the vehicle (DMSO), in certain control wells the metabolic (Akt) insulin signaling was blocked with wortmannin. The cells were induced with indicated concentration of insulin for 10 minutes, total protein was extracted and the Western Blots were performed with indicated antibody as described above. […]

[5] = Insulin tolerance test (ITT) in mice; type: in vivo

SMILES	Erk activation [1]	phospho-Shc (Shc activation) (phospho-Shc)	basal blood glucose [2]	rank in the insulin-sensitizer screen [3]	P-Akt/P-Erk ratio ([4]; Western blot)	insulin-dependent phospho-Akt (P-Akt) signaling/activation [4]	insulin sensitivity in-vivo (ITT) ([5]; 2.5 mg/kg I.P. for 4 days)	P-Akt/P-Erk ratio in the primary screen ([3]; ICWB, FL83B cells)	insulin sensitivity in vivo (ITT) ([5]; PO, 20 and 50 mg/kg)
COc1cc2ncnc(Nc3ccc(Oc4ccccc4)cc3)c2cc1OC [Src I-1]	decreased Erk activation	inhibited phospho-Shc activation in dose-dependent manner	significantly decreased basal blood glucose	top 35 out of 1689	increasing the P-Akt/P-Erk ratio	stimulates insulin-dependent P-Akt signaling	increased insulin sensitivity in-vivo	–	–
COC1=C(OC)C(=O)C(CCCCCCCCCCO)=C(C)C1=O [idebenone]	–	decreased phospho-Shc in a dose-dependent manner	–	–	–	increased insulin-dependent phospho-Akt activation in a dose-dependent manner	–	increased P-Akt/P-Erk ratio	increased insulin sensitivity in vivo
CN(C)C(=N)N=C(N)N [metformin, metformin hydrochloride]	–	–	–	top 35 out of 1689	–	–	–	–	–
